Laboratory results published in patent EP1321467A2, “High affinity inhibitors for target validation and uses thereof” (Princeton University, priority 1999, dated 2000).
Like-named read-outs stand apart in the source and are kept apart here.

How the values were obtained:
[1] = test system: wild-type Fus3 expressing cells; assay: Yeast mating assay for Fus3 function; assay type: cell-based, Saccharomyces cerevisiae; settings: all concentrations up to 50 µM
[2] = test system: S. cerevisiae expressing either wild-type Fus3, Fus3-asl, or no Fus3; assay: Non-selective cytotoxicity control, plating of mating cultures on YPD; settings: any of the three strains
I338A v-Src = I338A v-Src (Rous sarcoma virus subgroup A, UniProt P00524, I338A); assay: biochemical
fus3-as1 strain = assay: Yeast mating assay for Fus3 function; assay type: cell-based, Saccharomyces cerevisiae
WT Fyn = target: T1, WT Fyn (Homo sapiens, UniProt P06241); assay: In vitro kinase inhibition assay; assay type: biochemical; settings: Table 3
T1 construct: GST (N); made in house; host or cells: E. coli DH5a, pGEX-KT

Cdc28·MBP-C1b2 [3] = target: T2, Cdc28·MBP-C1b2 (Saccharomyces cerevisiae, UniProt P00546); assay: 1-NM-PP1 IC50, Histone H1 phosphorylation; assay type: biochemical
T2 construct: His6 (C); made in house; host or cells: Sf9 insect cells, baculovirus, co-infected with Cak1-HA3 (Cdc28-His6); bacteria (MBP-Clb2)
Method: (§1) Purification of Cdc28-His6, Cdc28-as1-His6, MBP-Clb2: Lysate was prepared from insect cells co-infected with baculoviruses encoding Cdc28-His6 or Cdc28-as1-His6 and Cak1-HA3 (151). Cdc28-His6 and Cdc28-as1-His6 were purified by metal affinity chromatography as described (152), followed by […]. MBP-Clb2 was purified from lysates of bacteria expressing MBP-Clb2 (a gift of R. Deshaies) on an amylose column (NEBL), followed by anion-exchange chromatography (Pharmacia Q Sepharose Fast Flow).
(§2) Phosphate incorporation was determined at each inhibitor concentration by scintillation counting.

cdc28-as1 cells [4] = assay: Cell cycle analysis, DNA content and morphology; assay type: cell-based, Saccharomyces cerevisiae; settings: 500 nM, cells arrested in late mitosis with cdc15-2
Method: DNA flow cytometry: Approximately 1x10^7 cells for each sample were fixed in 70% ethanol, resuspended in 50 mM Tris-HCl pH 8.0, briefly sonicated, digested with 2mg/ml RNase for 2 hours at 37°C, and resuspended in 0.2 ml protease solution (5 mg/ml pepsin. 0.5% concentrated HC1) and digested for 45 minutes at 37°C. DNA was stained with 1µM Sytox Green (Molecular Probes) in 50 mM Tris-HCl pH 7.5 and 20,000 cells from each sample were scanned with a FACScan FACS machine (Becton-Dickinson).
Thus, it appears possible to titrate the level of Cdc28-as1 activity in vivo, allowing the identification of cell cycle events that are differentially sensitive to decreases in the catalytic activity of Cdc28.
[…], initiation of budding and DNA synthesis were delayed about 30 to 60 minutes, while accumulation of the mitotic cyclin C1b2 was delayed 60 to 90 minutes. Cells went on to arrest with moderate C1b2 levels, highly hyperpolarized buds, and a G2/M DNA content, much like the arrest observed in asynchronous cells. […] Thus, cells treated with low concentrations of the inhibitor are slightly delayed during progression through early stages of the cell cycle, but eventually arrest due to a failure to assemble a mitotic spindle and enter mitosis.

wild-type cells [5] = assay: Yeast growth; assay type: cell-based, Saccharomyces cerevisiae; settings: 50,000 nM
cdc28-as1 strain = assay: Yeast growth; assay type: cell-based, Saccharomyces cerevisiae; settings: Saccharomyces cerevisiae, read-out: inhibitor concentration at which growth was inhibited 50%
cdc28-as1 cells [6] = assay: Genome-wide transcription, oligonucleotide microarray; assay type: cell-based, Saccharomyces cerevisiae; settings: 500 nM, two hours, asynchronous cells
I338G v-Src = target: T3, I338G v-Src (Rous sarcoma virus subgroup A, UniProt P00524, DEL77-225/I338G); assay: biochemical; assay type: biochemical
T3 construct: catalytic domain of the target kinase, I338G v-Src, which was expressed in bacteria and purified as a glutathione-S-transferase (GST) fusion protein; made in house; host or cells: E. coli DH5a, pGEX-KT

Cdc28-as1·MBP-C1b2 [7] = target: T4, Cdc28-as1·MBP-C1b2 (Saccharomyces cerevisiae, UniProt P00546, F88G); assay: 1-NM-PP1 IC50, Histone H1 phosphorylation; assay type: biochemical; set-up: His6 (C); made in house; host or cells: Sf9 insect cells, baculovirus, co-infected with Cak1-HA3 (Cdc28-as1-His6); bacteria (MBP-Clb2)
Method: as §1, §2

WT v-Src = target: T5, WT v-Src (Rous sarcoma virus subgroup A, UniProt P00524, DEL77-225); assay: biochemical; assay type: biochemical
T5 construct: glutathione-S-transferase fusion proteins of wild type v-Src catalytic domain, I338G v-Src SH1, and WT Fyn into the pGEX-KT plasmid; GST (N); made in house; host or cells: E. coli DH5a, pGEX-KT

wild-type cells [8] = assay: Genome-wide transcription, oligonucleotide microarray; assay type: cell-based, Saccharomyces cerevisiae; settings: 500 nM, 30 minutes
Method: Changes were deemed significant if they were greater than or equal to 2-fold or if the transcript changed present/absent status (as indicated by Affymetrix software) in the following comparisons: for non-specific drug effects: CDC28 + 1 -NM-PP1 vs CDC28: for cdc28-as1 effects: cdc28-as1 vs. CDC28.
Next, the effects of the inhibitor 1-NM-PP1 on cell growth and morphology were analyzed.

GST-XD4(V323A, I338A) [9] = target: T6, GST-XD4(V323A, I338A) (Rous sarcoma virus subgroup A, UniProt P00524, DEL77-225/I338A/V323A); assay type: biochemical; settings: nucleotide saturated; read-out: KM for RR-Src
T6 construct: double alanine mutant of the v-Src catalytic domain, (the XD4 fragment) were made as glutathione S-transferase (GST) fusion proteins (GST-XD4); made in house; host or cells: E. coli (DH5a), pGEX-KT

wild type protein kinase = assay: In vitro kinase reactions with radiolabeled nucleotide in murine lymphocyte lysates; assay type: biochemical; settings: 100 µM, 37°C, 10 min, autoradiogram
Method: For this it is preferably that no wild-type kinase, including ser/thr specific kinase (which carry out the bulk of cellular phosphorylation, as only 0.03% of all phosphoamino acids are tyrosine) (65), substantially accept the synthetic substrate. To establish that [γ-^32P]
These assays were performed in a manner similar to the procedure set forth in Example 2, with the exception of the use of radiolabeled [γ-^32P] […] Proteins were separate by 12.5% SDS-PAGE. The gel was soaked in 10% acetic acid, 10% isopropanol for 1 h. after which it was dried in a gel dryer and exposed to Biomax MS film (Kodak # 111-1681) for 1 h.
The results are shown in Figure 5(b), which is an autoradiogram showing the level of phosphorylation in hypotonically lysed murine lymphocytes with [γ-^32P] […] In principle, the ability to follow one protein kinase's activity in the presence of all other cellular kinase would allow for the identification of the direct kinase targets in a particular cell type by using membrane permeabilization (66) and a cell permeable form of A*TP to introduce [γ-^32P] A*TP into cells (67).

GST-XD4(V323A, I338A) [10] = assay type: biochemical
Method: (§3) Kinetic constants were determined by analysis of Lineweaver-Burk plots of the rate data (64). […]

GST-XD4(V323A, I338A) [11] = target: T6, GST-XD4(V323A, I338A); assay type: biochemical; settings: RR-Src 1 mM, 37°C, pH 8.0
Method: as §3

GST-XD4 [12] = assay: Kinetics for phosphate donor substrates; assay type: biochemical; settings: RR-Src 1 mM, 37°C, pH 8.0
Method: as §3

GST-XD4 [13] = settings: read-out: KM for RR-Src; nucleotide saturated
Cdc28-as1·MBP-C1b2 [14] = target: T4, Cdc28-as1·MBP-C1b2; settings: Eadie-Hofstee
Cdc28·MBP-C1b2 [15] = target: T2, Cdc28·MBP-C1b2; assay: ATP kinetics, Histone H1 phosphorylation; assay type: biochemical; settings: read-out: ATP Kinetics Km; Eadie-Hofstee
[16] = 1-NM-PP1 IC50 @ 10 µM ATP, 10 µM ATP
[17] = 1-NM-PP1 IC50 @ 1 mM ATP, 1 mM ATP

T2 sequence (P00546 whole entry): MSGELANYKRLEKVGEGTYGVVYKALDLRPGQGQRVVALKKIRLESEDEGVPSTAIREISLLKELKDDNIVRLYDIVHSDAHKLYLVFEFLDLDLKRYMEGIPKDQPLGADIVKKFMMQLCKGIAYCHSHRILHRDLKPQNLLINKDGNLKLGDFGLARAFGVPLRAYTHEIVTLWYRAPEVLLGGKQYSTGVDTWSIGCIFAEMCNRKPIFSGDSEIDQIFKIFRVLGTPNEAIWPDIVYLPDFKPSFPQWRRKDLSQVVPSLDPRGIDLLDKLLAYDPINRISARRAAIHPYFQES
T2 sequence (P24869 whole entry partner): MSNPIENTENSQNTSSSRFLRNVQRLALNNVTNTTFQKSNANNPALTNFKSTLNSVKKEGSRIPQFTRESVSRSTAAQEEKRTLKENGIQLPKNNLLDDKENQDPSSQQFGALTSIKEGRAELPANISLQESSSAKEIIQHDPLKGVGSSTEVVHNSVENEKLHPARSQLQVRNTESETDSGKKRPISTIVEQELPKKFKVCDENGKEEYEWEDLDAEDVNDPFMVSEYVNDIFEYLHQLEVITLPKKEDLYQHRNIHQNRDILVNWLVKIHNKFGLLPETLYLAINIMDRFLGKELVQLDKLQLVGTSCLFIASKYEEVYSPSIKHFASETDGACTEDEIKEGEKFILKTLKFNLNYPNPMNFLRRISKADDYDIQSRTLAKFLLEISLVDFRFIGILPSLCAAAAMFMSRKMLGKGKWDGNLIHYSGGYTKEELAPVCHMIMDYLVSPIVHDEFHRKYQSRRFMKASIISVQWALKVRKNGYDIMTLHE
T4 sequence (P00546 whole entry F88G): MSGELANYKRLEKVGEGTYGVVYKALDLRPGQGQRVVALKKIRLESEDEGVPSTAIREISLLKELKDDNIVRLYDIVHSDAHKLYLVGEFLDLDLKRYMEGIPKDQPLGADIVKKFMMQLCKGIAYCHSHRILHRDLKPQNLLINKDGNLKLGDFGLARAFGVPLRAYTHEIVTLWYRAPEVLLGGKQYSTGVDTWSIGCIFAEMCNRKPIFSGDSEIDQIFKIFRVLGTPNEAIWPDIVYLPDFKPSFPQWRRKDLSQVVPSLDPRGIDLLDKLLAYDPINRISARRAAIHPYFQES
T4 sequence (P24869 whole entry, further chain): as the sequence (P24869 whole entry partner) above
T1 sequence (P06241 1-534 isoform P06241-2): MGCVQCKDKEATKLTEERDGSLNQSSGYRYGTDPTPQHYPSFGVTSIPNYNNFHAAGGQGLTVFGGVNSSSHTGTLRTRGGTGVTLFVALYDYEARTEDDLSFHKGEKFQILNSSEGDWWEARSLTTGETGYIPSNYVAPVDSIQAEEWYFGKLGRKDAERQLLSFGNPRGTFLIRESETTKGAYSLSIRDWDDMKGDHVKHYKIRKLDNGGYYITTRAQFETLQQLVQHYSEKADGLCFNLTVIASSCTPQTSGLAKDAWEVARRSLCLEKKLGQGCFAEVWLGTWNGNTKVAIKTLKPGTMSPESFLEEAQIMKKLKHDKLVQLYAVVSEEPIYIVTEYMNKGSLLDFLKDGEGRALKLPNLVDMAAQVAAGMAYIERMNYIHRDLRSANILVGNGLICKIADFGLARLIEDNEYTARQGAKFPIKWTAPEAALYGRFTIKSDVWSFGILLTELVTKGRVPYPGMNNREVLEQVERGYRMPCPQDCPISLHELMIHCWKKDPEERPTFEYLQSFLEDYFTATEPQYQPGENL

With `CC(C)(C)n1nc(-c2cccc3ccccc23)c2c(N)ncnc21` [Compound 10] the diploid colonies [1] was 0.6-1.1 x 10^5 cfu/ml, the “cfu/mL on YPD plates” value [2] was “No significant decrease in cfu/mL on YPD plates” and the IC50 (I338A v-Src) was 1 nM. For the same compound, the “decrease from equivalent control cells” value (fus3-as1 strain; 500 nM) was 44 fold, the diploid colonies (fus3-as1 strain; 500 nM) was 1.7x10^3 cfu/ml and the “amount of diploids formed” value (fus3-as1 strain; 50 µM) was “indistinguishable from a fus3Δ strain”.

`CC(C)(C)n1nc(Cc2cccc3ccccc23)c2c(N)ncnc21` [Compound 6h, 4-amino-1-(tert-butyl)-3-(1'-naphthylmethyl)pyrazolo[3,4-d]pyrimidine] gave an IC50 (WT Fyn) of 1100 nM, an IC50 (Cdc28·MBP-C1b2 [3]; 1 mM ATP, text b306, read-out: IC50) of 44000 nM and an IC50 (Cdc28·MBP-C1b2 [3]; [16]) of 22000 nM. For the same compound, the IC50 (Cdc28·MBP-C1b2 [3]; [17]) was 44000 nM, the “time to cyclin destruction and rebudding” value (cdc28-as1 cells [4]) was under 60 min and the “increase of doubling times” value (wild-type cells [5]) was “about 2 fold”. For the same compound, the IC50 (cdc28-as1 strain) was 50 to 100 nM, the “genes with […] or greater changes in transcription” value (cdc28-as1 cells [6]) was 104 genes and the IC50 (I338G v-Src) was 4.2 nM. The “Cdc28-as1 more sensitive than wild-type Cdc28” value (Cdc28-as1·MBP-C1b2 [7]; 1 mM ATP) was “about 15,000 fold”, the IC50 (Cdc28-as1·MBP-C1b2 [7]; [16]) was 2 nM and the IC50 (Cdc28-as1·MBP-C1b2 [7]; [17]) was 2.9 nM. For the same compound, the IC50 (Cdc28-as1·MBP-C1b2 [7]; IC50, 1 mM ATP, text b306) was about 3 nM, the IC50 (WT v-Src) was 28000 nM and the “genes with transcription changed greater than two-fold” value (wild-type cells [8]) was 6 genes.

`O=P(O)(O)OP(=O)(O)OP(=O)(O)OC[C@H]1O[C@@H](n2cnc3c(NC4CCCC4)ncnc32)[C@H](O)[C@@H]1O` [ATP analog 8, N^6(cyclopentyl)ATP] was tested, and the Km (GST-XD4(V323A, I338A) [9]) was 2100 ± 900 µM, the “radiolabeled phosphoproteins in the cell lysate” value (wild type protein kinase) was “no radiolabeled phosphoproteins” and the “kcat/KM lower than the kcat/KM of the wild-type kinase with ATP” value (GST-XD4(V323A, I338A) [10]; mutant with analog versus wild type with ATP) was 50 fold. It also gave a Km (GST-XD4(V323A, I338A) [11]) of 15 ± 3 µM.

`Nc1ncnc2c1ncn2[C@@H]1O[C@H](COP(=O)(O)OP(=O)(O)OP(=O)(O)O)[C@@H](O)[C@H]1O` [ATP, adenosine triphosphate] was tested, and the Km (GST-XD4 [12]) was 12 ± 3 µM, the Km (GST-XD4 [13]) was 2600 ± 900 µM and the “ATP Kinetics kcat” value (Cdc28-as1·MBP-C1b2 [14]) was 0.355 s⁻¹. For the same compound, the Km (Cdc28-as1·MBP-C1b2 [14]; read-out: ATP Kinetics Km) was 322 µM, the Km (Cdc28·MBP-C1b2 [15]) was 35 µM and the “KM of the mutant higher than the KM of GST-XD4” value (GST-XD4(V323A, I338A) [10]; mutant versus GST-XD4) was “more than 10 fold”. It also gave a Km (GST-XD4(V323A, I338A) [11]) of 150 ± 20 µM and a kcat (GST-XD4(V323A, I338A) [11]) of 0.013 ± 0.0033 s⁻¹.
